In patent US12331054B2, “Perk inhibiting imidazolopyrazine compounds” (HiberCell, Inc., priority 2019, dated 2025) one finds IC50 data, which are given here for 23 compounds.

Assay [1] has as its system eIF2α in HEK293-EGFP-eIF2α cells. The assay can be described thus: PERK Cellular Assay (HEK293-EGFP-eIF2α cells, tunicamycin-induced ER stress, TR-FRET). Format: cell-based. The following applies: tunicamycin 2 hours. The method in brief: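 Cells pre-incubated with inhibitor 30 min at 37 °C, then ER stress induced with […] tunicamycin for 2 h. TR-FRET read on lysates; ratio normalized to DMSO control as percent inhibition over a 10-point, 3-fold dilution series; IC50 from 4-parameter logistic fit.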

Assay [2] deals with Recombinant human EIF2AK3 (PERK) catalytic domain (amino acids 536-1116) (Homo sapiens (Human), UniProt Q9NZJ5). The assay can be described thus: PERK In Vitro Activity Assay (isolated), TR-FRET kinase assay. The settings on record: isolated PERK enzyme, 1.5 μM ATP, read-out: Biochemical IC50. The method, boiled down:
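Recombinant PERK catalytic domain was incubated with 100–200 nM GFP-eIF2a substrate in 50 mM HEPES pH 7.5, 10 mM MgCl2, 1.0 mM EGTA and 0.01% Brij-35 for 45 min at room temperature. After a 10 mM EDTA stop, 2 nM Tb-anti-phospho-eIF2a was added for 90 min, and IC50 was fitted from TR-FRET ratios by 4-parameter logistic regression.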

In general, IC50 refers to the point on the concentration scale where inhibition reaches its midpoint.

Sequence of Recombinant human EIF2AK3 (PERK) catalytic domain (amino acids 536-1116) (Q9NZJ5 536-1116): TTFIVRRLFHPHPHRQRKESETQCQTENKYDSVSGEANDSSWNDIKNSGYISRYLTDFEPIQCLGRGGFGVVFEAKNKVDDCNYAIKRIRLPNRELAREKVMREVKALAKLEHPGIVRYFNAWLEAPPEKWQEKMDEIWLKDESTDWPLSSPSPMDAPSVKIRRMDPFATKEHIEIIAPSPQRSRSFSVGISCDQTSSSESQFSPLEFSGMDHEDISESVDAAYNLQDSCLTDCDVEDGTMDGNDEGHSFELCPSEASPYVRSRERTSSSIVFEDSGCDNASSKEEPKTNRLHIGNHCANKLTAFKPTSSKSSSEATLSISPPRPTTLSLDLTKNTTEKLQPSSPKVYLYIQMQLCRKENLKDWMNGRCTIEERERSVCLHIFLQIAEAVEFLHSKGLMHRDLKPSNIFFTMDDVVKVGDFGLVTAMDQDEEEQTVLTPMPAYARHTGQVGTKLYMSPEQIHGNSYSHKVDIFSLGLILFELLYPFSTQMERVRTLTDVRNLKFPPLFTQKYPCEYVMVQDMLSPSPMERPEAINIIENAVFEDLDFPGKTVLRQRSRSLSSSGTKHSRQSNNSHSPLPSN

Turning to `Cc1cc(F)cc(C(O)C(=O)Nc2ccc(-c3nc(C)n4c(C)cnc(N)c34)c(C)c2)c1` (stereo not shown) [Example 63, N-(4-(8-amino-3,5-dimethylimidazo [1,5-a]pyrazin-1-yl)-3-methyl-phenyl)-2-(3-fluoro-5-methylphenyl)-2-hydroxyacetamide], the IC50 in assay [1] is 51 to 100 nM; in assay [2], 1 to 25 nM.

In the case of `[2H]C([2H])([2H])c1nc(-c2ccc(NC(=O)C(O)c3cccc(Cl)c3)c(F)c2F)c2c(N)ncc(C)n12` (stereo not shown) [Example 138, N-[4-[8-amino-5-methyl-3-(trideuteriomethyl)imidazo[1,5-a]pyrazin-1-yl]-2,3-difluoro-phenyl]-2-(3-chloro-phenyl)-2-hydroxy-acetamide], the IC50 in assay [1] and in assay [2] was 1 to 25 nM throughout.

`[2H]C([2H])([2H])c1nc(-c2ccc(NC(=O)C(O)c3cccc(C(F)(F)F)c3)cc2C)c2c(N)nc(C)cn12` (stereo not shown) [Example 14, N-[4-[8-amino-6-methyl-3-(trideuteriomethyl)imidazo[1,5-a]pyrazin-1-yl]-3-methyl-phenyl]-2-hydroxy-2-[3-(trifluoromethyl)phenyl]acetamide]: the IC50 is 26 to 50 nM in assay [1] and 1 to 25 nM in assay [2].

Regarding `[2H]C([2H])([2H])c1nc(-c2ccc(NC(=O)C(O)c3cccc(C(F)(F)F)c3)cc2F)c2c(N)ncc(C(F)(F)F)n12` (stereo not shown) [Example 99, N-[4-[8-amino-3-(trideuteriomethyl)-5-(trifluoromethyl)imidazo[1,5-a]pyrazin-1-yl]-3-fluoro-phenyl]-2-hydroxy-2-[3-(trifluoromethyl)phenyl]acetamide], the results for the IC50 in assay [1] and in assay [2] were 101 to 250 nM and 26 to 50 nM, respectively.

Turning to `[2H]C([2H])([2H])c1nc(-c2ccc(NC(=O)C(O)c3cccc(C(F)(F)F)c3)c(F)c2F)c2c(N)ncc(C(F)(F)F)n12` (stereo not shown) [Example 149, N-[4-[8-amino-3-(trideuteriomethyl)-5-(trifluoromethyl)imidazo[1,5-a]pyrazin-1-yl]-2,3-difluoro-phenyl]-2-hydroxy-2-[3-(trifluoromethyl)phenyl]acetamide], the 50% inhibitory concentration (IC50) in assay [1] lay in the range of 251 to 500 nM; in assay [2], 501 to 1000 nM.

Regarding `[2H]C([2H])([2H])c1nc(-c2ccc(NC(=O)C(O)c3cccc(C(F)(F)F)c3)cc2F)c2c(N)ncc(C)n12` (stereo not shown) [Example 94, N-[4-[8-amino-5-methyl-3-(trideuteriomethyl)imidazo[1,5-a]pyrazin-1-yl]-3-fluoro-phenyl]-2-hydroxy-2-[3-(trifluoromethyl)phenyl]acetamide], the half-inhibitory concentration (IC50) in assay [1] and in assay [2] was 1 to 25 nM each time.

Take `[2H]C([2H])([2H])c1nc(-c2ccc(NC(=O)C(O)c3cc(F)cc(F)c3)cc2C)c2c(N)ncc(C(F)(F)F)n12` (stereo not shown) [Example 47, N-[4-[8-amino-3-(trideuteriomethyl)-5-(trifluoromethyl)imidazo[1,5-a]pyrazin-1-yl]-3-methyl-phenyl]-2-(3,5-difluoro-phenyl)-2-hydroxy-acetamide]: the figures for the IC50 in assay [1] and in assay [2] were 101 to 250 nM and 26 to 50 nM, respectively.

On to `[2H]C([2H])([2H])c1nc(-c2ccc(NC(=O)C(O)c3cccc(F)c3)c(F)c2F)c2c(N)nc(C)cn12` (stereo not shown) [Example 131, N-[4-[8-amino-6-methyl-3-(trideuteriomethyl)imidazo[1,5-a]pyrazin-1-yl]-2,3-difluoro-phenyl]-2-(3-fluoro-phenyl)-2-hydroxy-acetamide], for which the concentration for half-maximal inhibition (IC50) was in the range of 3000 to 4000 nM in assay [1] and 501 to 1000 nM in assay [2].

On to `[2H]C([2H])([2H])c1nc(-c2ccc(NC(=O)C(O)c3cc(F)cc(C(F)(F)F)c3)cc2C)c2c(N)ncc(C)n12` (stereo not shown) [Example 54, N-[4-[8-amino-5-methyl-3-(trideuteriomethyl)imidazo[1,5-a]pyrazin-1-yl]-3-methyl-phenyl]-2-[3-fluoro-5-(trifluoromethyl)phenyl]-2-hydroxy-acetamide], for which the IC50 in assay [1] and in assay [2] was 1 to 25 nM throughout.

For the compound `[2H]C([2H])([2H])c1nc(-c2ccc(NC(=O)C(O)c3cccc(C)c3)cc2F)c2c(N)ncc(C)n12` (stereo not shown) [Example 90, N-[4-[8-amino-5-methyl-3-(trideuteriomethyl)imidazo[1,5-a]pyrazin-1-yl]-3-fluoro-phenyl]-2-hydroxy-2-(m-tolyl)acetamide], the IC50 was 26 to 50 nM in assay [1] (2 h) and 1 to 25 nM in assay [2].

As to `[2H]C([2H])([2H])c1nc(-c2ccc(NC(=O)C(O)c3cccc(F)c3)nc2C)c2c(N)ncc(C)n12` (stereo not shown) [Example 173, N-[5-[8-amino-5-methyl-3-(trideuteriomethyl)imidazo[1,5-a]pyrazin-1-yl]-6-methyl-2-pyridyl]-2-(3-fluorophenyl)-2-hydroxy-acetamide], the IC50 in assay [1] was in the range of 26 to 50 nM; in assay [2] it was 1 to 25 nM.

Regarding `Cc1cc(NC(=O)C(O)c2cccc(F)c2)ccc1-c1nc(C)n2ccnc(N)c12` (stereo not shown) [Example 2, N-(4-(8-amino-3-methylimidazo[1,5-a]pyrazin-1-yl)-3-methylphenyl)-2-(3-fluorophenyl)-2-hydroxyacetamide], the IC50 in assay [1] was 251 to 500 nM; in assay [2], 26 to 50 nM.

As for `[2H]C([2H])([2H])c1nc(-c2ccc(NC(=O)C(O)c3cc(F)cc(C(F)(F)F)c3)cc2F)c2c(N)ncc(C)n12` (stereo not shown) [Example 110, N-[4-[8-amino-5-methyl-3-(trideuteriomethyl)imidazo[1,5-a]pyrazin-1-yl]-3-fluoro-phenyl]-2-[3-fluoro-5-(trifluoromethyl)phenyl]-2-hydroxy-acetamide], the 50% inhibitory concentration (IC50) in assay [1] and in assay [2] was 1 to 25 nM in each case.

As to `[2H]C([2H])([2H])c1nc(-c2ccc(NC(=O)C(O)c3cc(F)cc(F)c3)cc2C)c2c(N)ncc(Cl)n12` (stereo not shown) [Example 48, N-[4-[8-amino-5-chloro-3-(trideuteriomethyl)imidazo[1,5-a]pyrazin-1-yl]-3-methyl-phenyl]-2-(3,5-difluoro-phenyl)-2-hydroxy-acetamide], the IC50 in assay [1] (2 h) and in assay [2] was 1 to 25 nM throughout.

As to `[2H]C([2H])([2H])c1nc(-c2ccc(NC(=O)C(O)c3cccc(F)c3)cc2F)c2c(N)ncc(C)n12` (stereo not shown) [Example 72, N-[4-[8-amino-5-methyl-3-(trideuteriomethyl)imidazo[1,5-a]pyrazin-1-yl]-3-fluoro-phenyl]-2-(3-fluorophenyl)-2-hydroxy-acetamide], the IC50 in assay [1] (2 h) and in assay [2] was 1 to 25 nM throughout.

Turning to `Cc1cc(NC(=O)C(O)c2cccc(F)c2)ccc1-c1nc(C)n2c(Cl)cnc(N)c12` (stereo not shown) [Example 29, N-(4-(8-amino-5-chloro-3-methylimidazo[1,5-a]pyrazin-1-yl)-3-methylphenyl)-2-(3-fluorophenyl)-2-hydroxyacetamide], the concentration for half-maximal inhibition (IC50) in assay [1] was 26 to 50 nM; in assay [2] it was 1 to 25 nM.

Take `[2H]C([2H])([2H])c1nc(-c2ccc(NC(=O)C(O)c3cc(F)cc(F)c3)cc2F)c2c(N)nc(C)cn12` (stereo not shown) [Example 103, N-[4-[8-amino-6-methyl-3-(trideuteriomethyl)imidazo[1,5-a]pyrazin-1-yl]-3-fluoro-phenyl]-2-(3,5-difluoro-phenyl)-2-hydroxy-acetamide]: the values for the IC50 in assay [1] and in assay [2] were 251 to 500 nM and 1 to 25 nM, respectively.

`Cc1cc(NC(=O)C(O)c2cccc(F)c2)c(F)cc1-c1nc(C)n2c(C)cnc(N)c12` (stereo not shown) [Example 64, N-(4-(8-amino-3,5-dimethylimidazo [1,5-a]pyrazin-1-yl)-2-fluoro-5-methylphenyl)-2-(3-fluorophenyl)-2-hydroxy-acetamide]: the 50% inhibitory concentration (IC50) in assay [1] fell in the range of 501 to 1000 nM; in assay [2], 51 to 100 nM.

Turning to `[2H]C([2H])([2H])c1nc(-c2ccc(NC(=O)C(O)c3cccc(C(F)(F)F)c3)c(F)c2F)c2c(N)ncc(Cl)n12` (stereo not shown) [Example 152, N-[4-[8-amino-5-chloro-3-(trideuteriomethyl)imidazo[1,5-a]pyrazin-1-yl]-2,3-difluoro-phenyl]-2-hydroxy-2-[3-(trifluoromethyl)phenyl]acetamide], the 50% inhibitory concentration (IC50) in assay [1] and in assay [2] was 1 to 25 nM throughout.

Turning to `[2H]C([2H])([2H])c1nc(-c2ccc(NC(=O)C(O)c3cccc(C(F)(F)F)c3)c(F)c2F)c2c(N)ncc(Cl)n12` (stereo not shown) [Example 153, N-[4-[8-amino-5-chloro-3-(trideuteriomethyl)imidazo[1,5-a]pyrazin-1-yl]-2,3-difluoro-phenyl]-2-hydroxy-2-[3-(trifluoromethyl)phenyl]acetamide], the results for the 50% inhibitory concentration (IC50) in assay [1] and in assay [2] were 101 to 250 nM and 26 to 50 nM, respectively.

Consider `[2H]C([2H])([2H])c1nc(-c2ccc(NC(=O)C(O)c3cccc(Cl)c3)cc2C)c2c(N)ncc(C)n12` (stereo not shown) [Example 36, N-[4-[8-amino-5-methyl-3-(trideuteriomethyl)imidazo[1,5-a]pyrazin-1-yl]-3-methyl-phenyl]-2-(3-chlorophenyl)-2-hydroxy-acetamide], for which the IC50 in assay [1] and in assay [2] was 1 to 25 nM each time.

As to `[2H]C([2H])([2H])c1nc(-c2ccc(NC(=O)C(O)c3cc(F)cc(F)c3)cc2C)c2c(N)ncc(C)n12` (stereo not shown) [Example 51, N-[4-[8-amino-5-methyl-3-(trideuteriomethyl)imidazo[1,5-a]pyrazin-1-yl]-3-methyl-phenyl]-2-(3,5-difluoro-phenyl)-2-hydroxy-acetamide], the IC50 lay in the range of 51 to 100 nM in assay [1] and 1 to 25 nM in assay [2].

`[2H]C([2H])([2H])c1nc(-c2ccc(NC(=O)C(O)c3cc(F)cc(F)c3)cc2F)c2c(N)ncc(C)n12` (stereo not shown) [Example 104, N-[4-[8-amino-5-methyl-3-(trideuteriomethyl)imidazo[1,5-a]pyrazin-1-yl]-3-fluoro-phenyl]-2-(3,5-difluoro-phenyl)-2-hydroxy-acetamide]: the 50% inhibitory concentration (IC50) in assay [1] and in assay [2] was 1 to 25 nM throughout.
